Earlier results, collected in patent US6727227B1, “Tetrapetide revealing geroprotective effect, pharmacological substance on its basis, and the method of its application” (Obschestvo S Ogranichennoi Otvetstven-Nostiju “Klinika …, priority 2002, dated 2004).

Columns and labels:
experimental animals = settings: cited from earlier work
mice of SAM strain = settings: diet with increased amount for 7 months; cited from earlier work
mice of C3H strain = settings: addition to food; cited from earlier work
mice = settings: cited from earlier work
[1] = test system: Drosophila melanogaster (HEM strain); settings: cited from earlier work
LAF1 strain in mice = settings: LAF1 mice with accelerated ageing, food-supplement; cited from earlier work

Compound	Life span (experimental animals)	also measured
butyl hydroxytoluol	insignificant extension in the life span	
NCCC(=O)N[C@@H](Cc1cnc[nH]1)C(=O)O [carnosine]		Death rate (mice of SAM strain): death rat decreased
vitamin E	increase in the life span	
N[C@@H](CS)C(=O)O [cystein]	insignificant extension in the life span	
CCc1nc(C)ccc1O.Cl [2-ethyl-6-methyl-3-oxypyridine chlorhydrate]	An increase in the life span	
vitamin A	increase in the life span	
CN(C)CCOC(=O)COc1ccc(Cl)cc1 [centrophenoxyn]	insignificant extension in the life span	
O=C1O[C@H]([C@@H](O)CO)C(O)=C1O [vitamin C]	increase in the life span	
N[C@@H](CCC(=O)N[C@@H](CS)C(=O)NCC(=O)O)C(=O)O [glutathione]	insignificant extension in the life span	
CCOc1ccc2c(c1)C(C)=CC(C)(C)N2 [ethoxyhin]		Life span (mice of C3H strain): extended the life span
Oc1cccnc1 [3-hydroxypyridine]	insignificant extension in the life span	
COc1ccc2[nH]cc(CCNC(C)=O)c2c1 [melatonin]		Average life span (mice): A minor increase in the average life span; Geroprotective effect [1]: failed to produce a geroprotective effect
Cc1cc(C(C)(C)C)c(O)c(C(C)(C)C)c1 [Ionol, 2.6-di-tert-butyl4-methylphenol]		Life span (LAF1 strain in mice): promoted an increase in the life span
O=C(O)[C@H](O)[C@@H](O)[C@H](O)[C@H](O)CO [gluconic acid, lactic and gluconic acids]	insignificant extension in the life span	
NCCS [2-mercaptoethanolamine]	insignificant extension in the life span	
